The compounds below were run on JR251 or RBL cells (assay: Store-operated calcium entry, either JR251 or RBL cells, or both).
Type: cell-based
Procedure, shortened: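 FLIPR calcium-entry readout in fluo-4-loaded cells held in Ca2+-free HBSS before calcium add-back. For RBL-2H3, store depletion used thapsigargin for 25 min after a 5 min compound pre-incubation, and IC50 was based on the 7 s Upslope. For Orai1/STIM1 stable cells, compound was pre-incubated 30 min and IC50 was based on Peak-Basal.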

IC50, < 10 µM:
Cc1ccc(C(=O)Nc2scc(-c3ccc(Br)cc3)c2C(=O)O)cn1 [4-(4-bromophenyl)-2-(6-methylnicotinamido)thiophene-3-carboxylic acid], O=C(Nc1scc(-c2ccc(Cl)cc2)c1C(=O)O)c1nc2cccc(F)c2s1 [4-(4-chlorophenyl)-2-(7-fluorobenzo[d]thiazole-2-carboxamido)thiophene-3-carboxylic acid], O=C(Nc1scc(-c2cc3cccc(O)c3o2)c1C(=O)O)c1cc2c(F)cccc2o1 [2-(4-fluorobenzofuran-2-carboxamido)-4-(7-hydroxybenzofuran-2-yl)thiophene-3-carboxylic acid], COc1cc(C(F)(F)F)ccc1-c1csc(NC(=O)c2nc3ccccc3o2)c1C(=O)O [2-(benzo[d]oxazole-2-carboxamido)-4-(2-methoxy-4-(trifluoromethyl)phenyl)thiophene-3-carboxylic acid], Cc1cc(C#N)ccc1-c1csc(NC(=O)c2nc3ccccc3o2)c1C(=O)O [2-(benzo[d]oxazole-2-carboxamido)-4-(4-cyano-2-methylphenyl)thiophene-3-carboxylic acid], Cc1nn(C)c2sc(C(=O)Nc3scc(-c4ccc(Cl)cc4)c3C(=O)O)cc12 [4-(4-chlorophenyl)-2-(1,3-dimethyl-1H-thieno[2,3-c]pyrazole-5-carboxamido)thiophene-3-carboxylic acid], O=C(Nc1scc(-c2ccc(Br)cc2F)c1C(=O)O)c1nc2ccccc2o1 [2-(benzo[d]oxazole-2-carboxamido)-4-(4-bromo-2-fluorophenyl)thiophene-3-carboxylic acid], O=C(Nc1scc(-c2cc(F)c(F)c(F)c2)c1C(=O)O)c1cc2ccccc2o1 [2-(benzofuran-2-carboxamido)-4-(3,4,5-trifluorophenyl)thiophene-3-carboxylic acid], O=C(O)c1c(-c2ccc(Br)cc2)csc1NC(=O)C1Cc2ccccc2C1 [4-(4-bromophenyl)-2-(2,3-dihydro-1H-indene-2-carboxamido)thiophene-3-carboxylic acid], O=C(Nc1scc(-c2ccc(Cl)cc2)c1C(=O)O)c1ccc2snnc2c1 [2-(benzo[d][1,2,3]thiadiazole-5-carboxamido)-4-(4-chlorophenyl)thiophene-3-carboxylic acid], O=C(Nc1scc(-c2ccc(Cl)cc2)c1C(=O)O)c1ccc(Cl)nc1Cl [4-(4-chlorophenyl)-2-(2,6-dichloronicotinamido)thiophene-3-carboxylic acid], Cc1cc(F)c(-c2csc(NC(=O)c3cc4ccccc4o3)c2C(=O)O)cc1Cl [2-(benzofuran-2-carboxamido)-4-(5-chloro-2-fluoro-4-methylphenyl)thiophene-3-carboxylic acid], O=C(O)c1c(-c2ccc(Cl)cc2)csc1NC(=O)C1COc2ccccc2O1 (centres unmarked) [4-(4-chlorophenyl)-2-(2,3-dihydrobenzo[b][1,4]dioxine-2-carboxamido)thiophene-3-carboxylic acid], O=C(Nc1scc(-c2ccc(Cl)c(Cl)c2)c1C(=O)O)c1ccc2snnc2c1 [2-(benzo[d][1,2,3]thiadiazole-5-carboxamido)-4-(3,4-dichlorophenyl)thiophene-3-carboxylic acid], Cc1ccc(-c2csc(NC(=O)c3cc4c(F)cccn4n3)c2C(=O)O)c(F)c1F [4-(2,3-difluoro-4-methylphenyl)-2-(4-fluoropyrazolo[1,5-a]pyridine-2-carboxamido)thiophene-3-carboxylic acid], O=C(O)c1c(-c2ccc(Cl)cc2)csc1NC(=O)C1Cc2ccc([N+](=O)[O-])cc2C1 (centres unmarked) [4-(4-chlorophenyl)-2-(5-nitro-2,3-dihydro-1H-indene-2-carboxamido)thiophene-3-carboxylic acid], O=C(O)c1c(-c2ccc(Cl)cc2)csc1NC(=O)C(F)Cc1ccccc1 (centres unmarked) [4-(4-chlorophenyl)-2-(2-fluoro-3-phenylpropanamido)thiophene-3-carboxylic acid], O=C(Nc1scc(-c2ccc(Cl)cc2)c1C(=O)O)c1cc2occc2[nH]1 [4-(4-chlorophenyl)-2-(4H-furo[3,2-b]pyrrole-5-carboxamido)thiophene-3-carboxylic acid], O=C(Nc1scc(-c2ccc(Cl)cc2)c1C(=O)O)c1c[nH]nc1-c1ccccc1 [4-(4-chlorophenyl)-2-(3-phenyl-1H-pyrazole-4-carboxamido)thiophene-3-carboxylic acid], Cc1ccc(-c2csc(NC(=O)c3cc4c(Cl)cc(Cl)cc4[nH]3)c2C(=O)O)cc1 [2-(4,6-dichloro-1H-indole-2-carboxamido)-4-p-tolylthiophene-3-carboxylic acid], O=C(Nc1scc(-c2cc3cccc(-c4cn[nH]c4)c3o2)c1C(=O)O)c1cc2ccccc2o1 [4-(7-(1H-pyrazol-4-yl)benzofuran-2-yl)-2-(benzofuran-2-carboxamido)thiophene-3-carboxylic acid], O=C(Nc1scc(-c2ccc(Cl)cc2)c1C(=O)O)c1nc(C2CC2)cs1 [4-(4-chlorophenyl)-2-(4-cyclopropylthiazole-2-carboxamido)thiophene-3-carboxylic acid], O=C(Nc1scc(-c2ccc(Br)cc2)c1C(=O)O)c1cnccn1 [4-(4-bromophenyl)-2-(pyrazine-2-carboxamido)thiophene-3-carboxylic acid], O=C(C#Cc1ccccc1)Nc1scc(-c2ccc(Cl)cc2)c1C(=O)O [4-(4-chlorophenyl)-2-(3-phenylpropiolamido)thiophene-3-carboxylic acid], COc1ccc2oc(C(=O)Nc3scc(-c4ccc(C)c(F)c4F)c3C(=O)O)nc2c1 [4-(2,3-difluoro-4-methylphenyl)-2-(5-methoxybenzo[d]oxazole-2-carboxamido)thiophene-3-carboxylic acid], O=C(Nc1scc(-c2ccc(Cl)c(F)c2)c1C(=O)O)c1nc2cccc(F)c2o1 [4-(4-chloro-3-fluorophenyl)-2-(7-fluorobenzo[d]oxazole-2-carboxamido)thiophene-3-carboxylic acid], Cc1ccc(-c2csc(NC(=O)c3nc4ccccc4s3)c2C(=O)O)c(F)c1 [2-(benzo[d]thiazole-2-carboxamido)-4-(2-fluoro-4-methylphenyl)thiophene-3-carboxylic acid], O=C(O)c1c(-c2ccc(Br)cc2)csc1NC(=O)C(F)Cc1cc(F)ccc1Cl (centres unmarked) [4-(4-bromophenyl)-2-(3-(2-chloro-5-fluorophenyl)-2-fluoropropanamido)thiophene-3-carboxylic acid], O=C(Nc1scc(-c2ccc(Br)c(F)c2F)c1C(=O)O)c1ccc2occc2c1 [2-(benzofuran-5-carboxamido)-4-(4-bromo-2,3-difluorophenyl)thiophene-3-carboxylic acid]

Source: US8394848B2, “Compounds that modulate intracellular calcium” (Calcimedica, Inc., priority 2008, dated 2013)
